# Data published in US9505834B2, “Methods for controlling the galactosylation profile of recombinantly-expressed proteins” (AbbVie Inc., priority 2011, dated 2016).
# Where two headings read alike, the source gives them in different places.
# Key:
# [1] = test system: adalimumab-producing NSO cell line; test: Example 6 culture growth & productivity; type: cell-based; details: for culture growth and viability profiles: galactose 0 to 5 mM and/or manganese chloride up to 0.5 μM
# Method: Growth and production media for the adalimumab-producing NSO cell line were prepared using a proprietary Life Technologies Gibco chemically defined media, PFBM-3 basal medium plus PFFM-4 feed medium.
# Upon thaw, cells were expanded for 3 to 5 (2 days each) passages in a combination of 250 mL, 500 mL, 1 L, 2 L and 3 L Corning vented non-baffled shake flasks. Production cultures were initiated in single 1 L Corning vented non-baffled shake flasks (240 mL initial working volume) at an initial VCD of approximately 2.5×10^5 cells/mL. Cultures were maintained on orbital shakers at 100 RPM in a dry incubator at 37° C. and 5% CO2. The shake flask study was run in a fed-batch mode and the culture was fed PFFM-4 as follows: 24 mL—day 2, 28.8 mL—day 4, 28.8 mL—day 6, and 28.8 mL—day 8.
# Samples were collected every 2 days and measured for cell density and viability using a Cedex cell counter. Retention samples for titer analysis via Poros A method were collected daily beginning on Day 8 by centrifugation at 2,000 g for 10 min and then filtered through 0.2 μm PVDF syringe filter. The cultures were harvested on production day 10. The entire culture was collected, chilled on ice to approximately 0° C. for 1.5 hours, the cells and debris flocculated at pH 5.0 by the addition of 1M citric acid and held for 15 minutes, and centrifuged at 4000x g for 15 min at 5° C. The supernatant was passed through 0.20 μm Millipore Stericup PES filters, and, immediately post filtration, the acidified clarified cell-free harvest was neutralized with 2M Tris to pH 7.1±0.2. The cell free harvest was transferred to PETG bottles and stored at −80° C. until analysis.
# Galactose was supplemented at the following levels in both production and feed media: 0, 1, 4, 5, and 10 mM.
# [2] = test system: CHO cell line producing mAb #2
# Method: (§1) For all studies with CHO cell lines described throughout this invention, samples were collected daily and measured for cell density and viability using a Cedex cell counter. Retention samples for titer analysis via Poros A method were collected by centrifugation at 12,000 RPM for 5 min when the culture viability began declining. The cultures were harvested by collecting 125 mL aliquots and centrifuging at 3,000 RPM for 30 min when culture viability was near or below 50%. All supernatants were stored at −80° C. until analysis.
# (§2) Growth and production media for the mAb #2 producing CHO cell line were prepared using the proprietary Life Technologies Gibco chemically defined media, GIA-1.
# Upon thaw, cells were expanded in Corning vented non-baffled shake flasks maintained on orbital shakers at 140 RPM, and in 10 L cell bags (2 L working volume) maintained at 25 RPM, 7° angle, 0.25 SLPM airflow in a dry incubator at 36° C. and 5% CO2. Production cultures were initiated in 3 L bioreactors (1.5 L initial working volume) at 36° C., 25% dissolved oxygen, 200 RPM, and pH 7.0. The chemically-defined feed from Life Technologies Gibco JCL-5 was added as follows: 3% (v/v)—day 3, 5%—day 5, 7%—day 7, 10%—day 9, and 10%—day 11. […] Bioreactors were harvested at viability of approximately 70% or below or on production day 15, whichever condition occurred first. […]
# [3] = test system: adalimumab-producing CHO cell line; test: Example 2 oligosaccharide analysis, HyClone CDM4CHO, batch shake flasks; type: cell-based, Chinese Hamster
# Method: as §1
# (§3) For all studies, the harvest samples were Protein A purified and prepared for the oligosaccharide assay using the following procedures. As a first step in the process of establishing the identity and quantifying the oligosaccharides, they are released from the protein by enzymatic digestion with N-glycanase. Once the glycans are released, the free reducing end of each glycan is labeled by reductive amination with a fluorescent tag, 2-aminobenzamide (2-AB). The resulting labeled glycans are separated by normal-phase HPLC (NP-HPLC) in acetonitrile: 50 mM ammonium formate, pH 4.4, and detected by a fluorescence detector. Quantitation is based on the relative area percent of detected sugars. Throughout this invention, the relative area percentages of the agalactosyl fucosylated biantennary oligosaccharides, denoted as NGA2F+NGA2F-GlcNAc sum, and the galactose-containing fucosylated biantennary oligosaccharides NA1F+NA2F sum are reported and discussed.
# Growth and production media for the adalimumab-producing CHO cell line were prepared using Thermo Scientific HyClone chemically defined media CDM4CHO without L-glutamine (Catalogue #SH30558.02). […] All media were filtered through Corning 0.5 L or 1 L (0.22 μm PES) filter systems and stored at 4° C. until use.
# Upon thaw, cells were adapted to and expanded in HyClone CDM4CHO media for 5 (2 to 3 day each) passages in a combination of 250 mL, 500 mL, and 1000 mL Corning vented non-baffled shake flasks. Production cultures were initiated in duplicate 500 mL Corning vented non-baffled shake flasks (200 mL working volume) at an initial VCD of approximately 0.5×10^6 cells/mL. Cultures were maintained on orbital shakers at 110 RPM in a dry incubator at 35° C. and 5% CO2. A glucose solution (1.25% (v/v) of 40% solution) was fed when the media glucose concentration fell below 3 g/L. […]
# [4] = test system: adalimumab-producing CHO cell line; test: Example 1 culture growth & productivity, batch shake flasks; type: cell-based, Chinese Hamster; details: galactose 0 to 100 mM and/or manganese chloride up to 80 μM
# Method: All supernatants were stored at −80° C. until analysis. […] Culture growth, productivity, and product quality data for control cultures is the average of the 3 experiments.
# [5] = test system: adalimumab-producing CHO cell line; test: Example 3 oligosaccharide analysis, hydrolysate-based media, batch shake flasks; type: cell-based, Chinese Hamster
# Method: as §1, §3
# All media were filtered through Corning 0.5 L or 1 L filter systems (0.22 μm PES) and stored at 4° C. until use.
# Production cultures were initiated in duplicate 500 mL Corning vented non-baffled shake flasks (200 mL working volume) at an initial VCD of approximately 0.5×10^6 cells/mL. Cultures were maintained on orbital shakers at 110 RPM in a dry incubator at 35° C. and 5% CO2. A glucose solution (1.25% (v/v) of 40% solution) was fed when the media glucose concentration fell below 3 g/L.
# [6] = test system: CHO cell line producing mAb #2; test: Example 8 oligosaccharide analysis, CDM GIA-1, fed-batch 3 L bioreactors; type: cell-based, Chinese Hamster
# Method: as §1, §3, §2
# Upon thaw, cells were expanded in Corning vented non-baffled shake flasks maintained on orbital shakers at 140 RPM, and in 10 L cell bags (2 L working volume) maintained at 25 RPM, 7° angle, 0.25 SLPM airflow in a dry incubator at 36° C. and 5% CO2. Production cultures were initiated in 3 L bioreactors (1.5 L initial working volume) at 36° C., 25% dissolved oxygen, 200 RPM, and pH 7.0. The chemically-defined feed from Life Technologies Gibco JCL-5 was added as follows: 3% (v/v)—day 3, 5%—day 5, 7%—day 7, 10%—day 9, and 10%—day 11. […] Bioreactors were harvested at viability of approximately 70% or below or on production day 15, whichever condition occurred first.
# Galactose was supplemented at 0, 15, 30, and 60 mM concentrations in both production and feed media.
# [7] = manganese chloride alone, range 0 to 40 μM
# [8] = manganese chloride alone, range 0 to 75 μM
compound,measurement,setting,value
Manganese (II) Chloride [manganese chloride],culture growth and viability profiles,[1],comparable to the control condition
same,growth profile,[2]; 25 μM manganese chloride alone,grew slower after production day 7
same,growth profile,[2]; manganese chloride 50 μM or 75 μM,growth profiles comparable to the control culture
same,decrease in the NGA2F+NGA2F-GlcNac sum,[3]; 40 μM manganese chloride alone,5%
same,maximum decrease in the NGA2F+NGA2F-GlcNac sum,[3]; [7],5%
same,maximum increase in the NA1F+NA2F sum,[3]; [7],4%
same,cell growth and viability profiles,[4],comparable to control cultures
same,decrease in the NGA2F+NGA2F-GlcNac sum,"[5]; manganese chloride alone, range 0 to 40 μM, within assay variability",approximately 1%
same,decrease in the NGA2F+NGA2F-GlcNac sum,[6]; 25 μM manganese chloride alone,10%
same,decrease in the NGA2F+NGA2F-GlcNac sum,[6]; 50 μM manganese chloride alone,18%
same,maximum decrease in the NGA2F+NGA2F-GlcNac sum,[6]; [8],18%
same,maximum increase in the NA1F+NA2F sum,[6]; [8],16%
"O=C[C@H](O)[C@@H](O)[C@@H](O)[C@H](O)CO [galactose, D(+)Galactose]",culture growth and viability profiles,[1],comparable to the control condition
same,effect on culture growth and productivity,[1]; galactose 10 mM,detrimental effect on culture growth and productivity
same,harvest titer lower than control condition,[1]; galactose 10 mM,60%
same,decrease in the NGA2F+NGA2F-GlcNac sum,[3]; 40 mM galactose alone,6%
same,increase in the NA1F+NA2F sum,[3]; galactose alone up to 40 mM,6%
same,maximum decrease in the NGA2F+NGA2F-GlcNac sum,[3]; galactose alone up to 40 mM,6%
same,cell growth and viability profiles,[4],comparable to control cultures
same,maximum decrease in the NGA2F+NGA2F-GlcNac sum,[5]; galactose alone up to 40 mM,4%
same,maximum increase in the NA1F+NA2F sum,[5]; galactose alone up to 40 mM,4%
same,decrease in the NGA2F+NGA2F-GlcNac sum,[6]; 15 mM galactose alone,7%
same,decrease in the NGA2F+NGA2F-GlcNac sum,[6]; 30 mM galactose alone,12%
same,maximum decrease in the NGA2F+NGA2F-GlcNac sum,[6]; galactose alone up to 60 mM,12%
same,maximum increase in the NA1F+NA2F sum,[6]; galactose alone up to 60 mM,11%
